{"source": "patent US20110166223A1", "about": "“METHODS OF INHIBITING FGFR3 SIGNALING” (CEDARS-SINAI MEDICAL CENTER, priority 2008, published 2011)", "key": {"[1]": {"tested_on": "FGF2-mediated extracellular matrix loss in RCS chondrocytes", "assay": "Alcian blue staining of extracellular matrix in RCS chondrocytes", "assay_type": "cell-based, rat", "settings": "FGF2 5 ng/ml, NF449 20 μM, 72 hours, FIG. 2a", "method": "For Alcian blue staining, growing RCS cultures were treated with FGF2 (5 ng/ml) alone or in the presence of NF449 (20 μM) for 72 hours, fixed with 4% paraformaldehyde and stained for 30 minutes with Alcian blue. For quantification of the FGF2/FGFR3-mediated extracellular matrix loss, RCS chondrocytes were treated with FGF2 (5 ng/ml) and NF449 (20 μM) for 72 hours in the presence of 10 μCi/ml of [^35S]sulfate (Perkin Elmer, Boston, Mass.). Following the cultivation period, cells were harvested and the incorporated radioactivity was determined by liquid scintillation.\nApart from the growth arrest, aberrant FGFR3 signaling in chondrocytes leads to the loss of their extracellular matrix, rich in sulfated proteoglycans, due to inhibition of matrix synthesis as well as degradation of the existing matrix. The inventors therefore evaluated whether NF449 rescues the extracellular matrix loss induced by FGFR3 activation. […] Similar to previous findings, this matrix was lost after the 72-hours of FGF2 treatment. […] To further confirm this observation, cells were incubated with [^35S]sulfate for 72 hours to label the extracellular matrix and determined the effect of FGF2 and NF449 on the cell-bound radioactivity."}, "[2]": {"tested_on": "CCL3 and CCL4 expression in OPM2 cells", "assay": "Real-time RT-PCR of FGF2/FGFR3-induced CCL3 and CCL4 expression", "assay_type": "cell-based", "settings": "NF449 one hour before FGF2, FIG. 3b", "method": "FIG. 3, in accordance with an embodiment herein, depicts 4,4′,4″,4′″-[carbonyl-bis[imino-5,1,3-benzenetriyl bis-{carbonylimino}]]tetrakis-{benzene-1,3-disulfonic acid} inhibits FGF2/FGFR3 signaling in MM cell lines OPM2 and KMS11. (a) KMS11 and OPM2 cells were serum-starved for 12 hours, treated with 4,4′,4″,4′″-[carbonyl-bis[imino-5,1,3-benzenetriyl bis-{carbonylimino}]]tetrakis-{benzene-1,3-disulfonic acid} for one hour before the treatment with FGF2 and the levels of ERK MAP kinase phosphorylation were determined by western blotting with the P-ERK1/2(Thr^202/Tyr^204) antibody. As a loading control, the membranes were reprobed with antibody recognizing ERK regardless of its phosphorylation. Note the FGF2-mediated ERK phosphorylation is inhibited by 4,4′,4″,4′″-[carbonyl-bis[imino-5,1,3-benzenetriyl bis-{carbonylimino}]]tetrakis-{benzene-1,3-disulfonic acid} in both KMS11 and OPM2 cells. (b) The OPM2 cells were serum starved for 12 hours, pre-treated with 4,4′,4″,4′″-[carbonyl-bis[imino-5,1,3-benzenetriyl bis-{carbonylimino}]]tetrakis-{benzene-1,3-disulfonic acid} for one hour before FGF2 treatment, and analyzed for CCL3 and CCL4 expression by real-time RT-PCR as described herein. The results are expressed as the fold difference relative to control (2^ddCt). Note the FGF2-mediated induction of CCL3 and CCL4 that is inhibited by 4,4′,4″,4′″-[carbonyl-bis[imino-5,1,3-benzenetriyl bis-{carbonylimino}]]tetrakis-{benzene-1,3-disulfonic acid}. The data represent two independent samples, each run as a technical duplicate, with the indicated range. The results are representative for three experiments.\nTotal RNA was isolated using the RNeasy Mini Kit (Qiagene, Valencia, Calif.) and poly-dT-primed cDNA was synthesized from 3 μg of RNA using Omniscript RT kit (Qiagene). Real-time RT-PCRs were carried out as described in detail elsewhere, using Dynamo SYBR Green qPCR chemistry (Finnzymes, Espoo, Finland). The PCR primers were the following (5′ to 3′; product size): CCL3 (SEQ. ID. NO.: 1 and SEQ. ID. NO.: 2), 192 bp; CCL4 (SEQ. ID, NO.: 3 and SEQ. ID. NO.: 4), 214 bp; ACTIN (SEQ. ID. NO.: 5 and SEQ. ID. NO.: 6), 245 bp. The results are expressed as fold difference relative to control (2^ddCt).\nSince MM represents another area of pathological FGFR3 signaling in viva, the inventors evaluated whether NF449 inhibits FGFR3 signaling in KMS11 and OPM2 MM cell lines. OPM2 and KMS11 cells overexpress FGFR3 carrying the strongly activating mutations Y373C or K650E and thus serve as an in vitro model for oncogenic FGFR3 signaling in MM [14]. […] As the CCL3 ([…]) and CCL4 (MIP-1β) chemokines were previously identified as transcriptional targets of FGFR3 signaling in MM [16], the inventors determined the effect of NF449 on the FGF2/FGFR3-induced expression of CCL3 and CCL4."}, "[3]": {"settings": "listed as 4,4′,4″,4′″-[carbonyl-bis[imino-5,1,3-benzenetriyl bis-{carbonylimino}]]tetrakis"}}, "data": [{"molecule": "O=C(Nc1cc(C(=O)Nc2ccc(S(=O)(=O)O)cc2S(=O)(=O)O)cc(C(=O)Nc2ccc(S(=O)(=O)O)cc2S(=O)(=O)O)c1)Nc1cc(C(=O)Nc2ccc(S(=O)(=O)O)cc2S(=O)(=O)O)cc(C(=O)Nc2ccc(S(=O)(=O)O)cc2S(=O)(=O)O)c1", "note": "[NF449, 4,4′,4″,4′″-[carbonyl-bis[imino-5,1,3-benzenetriylbis-{carbonylimino}]]tetrakis-{benzene-1,3-disulfonic acid}]", "values": [{"measurement": "FGF2-induced cellular shape change", "setting": "[1]", "value": "rescued"}, {"measurement": "FGF2-mediated extracellular matrix loss, Alcian blue staining", "setting": "[1]", "value": "equaled that of the control cells"}, {"measurement": "FGF2-mediated extracellular matrix loss, Alcian blue staining", "setting": "[1]; [3]", "value": "reversed"}, {"measurement": "FGF2-mediated upregulation of CCL3 transcripts", "setting": "[2]", "value": "significantly blocked"}, {"measurement": "FGF2-mediated upregulation of CCL4 transcripts", "setting": "[2]", "value": "significantly blocked"}, {"measurement": "FGF2-mediated upregulation of CCL3 transcripts", "setting": "[2]; [3]", "value": "inhibited"}, {"measurement": "FGF2-mediated upregulation of CCL4 transcripts", "setting": "[2]; [3]", "value": "inhibited"}]}]}
